Assay results published in patent US20160100579A1, “NEMATICIDAL N-(2-SUBSTITUTED 2-PHENYLETHYL)CARBOXAMIDES AND N-(2-SUBSTITUTED 2-PHENYLETHYL)-THIOCARBOXAMIDES” (priority 2013, published 2016).
Where two headings read alike, the source gives them in different places.

Experiments:
Cooperia curticei = type: in vivo; conditions: after 5 days, 100% = all larvae killed
Protocol: Cooperia curticei—Test (COOPCU)
(§1) Solvent: dimethyl sulfoxide
(§2) To produce a suitable preparation of active compound, 10 mg of active compound are dissolved in 0.5 ml solvent, and the concentrate is diluted with “Ringer's solution” to the desired concentration.
Approximately 40 nematode larvae (Cooperia curticei) are transferred into a test tube containing the compound solution.
After 5 days percentage of larval mortality is recorded. 100% efficacy means all larvae are killed; 0% efficacy means no larvae are killed.

Haemonchus contortus = Haemonchus contortus - Test (HAEMCO); type: in vivo; conditions: after 5 days, 100% = all larvae killed
Protocol: Haemonchus contortus—Test (HAEMCO)
as §1, §2
Approximately 40 larvae of the red stomach worm (Haemonchus contortus) are transferred into a test tube containing compound solution.
After 5 days percentage of larval mortality is recorded. 100% efficacy means all larvae are killed, 0% efficacy means no larvae are killed.

[1] = Measurement of log P values by HPLC on reversed phase columns (EEC directive 79/831 Annex V.A8; methods [a] pH 2.3, [b] pH 2.7, [c] pH 7.8); type: physicochemical; conditions: for chromatographic logP: reversed phase HPLC column
Protocol: Measurement of log P-values:
Measurement of log P values was performed according EEC directive 79/831 Annex V.A8 by HPLC (High Performance Liquid Chromatography) on reversed phase columns with the following methods:
^[a] Measurement was done at pH 2.3 with 0.1% phosphoric acid and acetonitrile as eluent with a linear gradient from 10% acetonitrile to 95% acetonitrile.
^[b] measurement of LC-MS was done at pH 2.7 with 0.1% formic acid in water and with acetonitrile (contains 0.1% formic acid) as eluent with a linear gradient from 10% acetonitrile to 95% acetonitrile.
^[c] Measurement with LC-MS was done at pH 7.8 with 0.001 molar ammonium hydrogen carbonate solution in water as eluent with a linear gradient from 10% acetonitrile to 95% acetonitrile.
Calibration was done with not branched alkan2-ones (with 3 to 16 carbon atoms) with known log P-values (measurement of log P values using retention times with linear interpolation between successive alkanones).. lambda-maX-values were determined using UV-spectra from 200 nm to 400 nm and the peak values of the chromatographic signals.

Meloidogyne incognita = Meloidogyne incognita - test (MELGIN); type: in vivo; conditions: 20 ppm; salad seedlings in sand; after 14 days; 100% = no galls found
Protocol: Meloidogyne incognita—test (MELGIN)
Solvent: 125.0 parts by weight of acetone
To produce a suitable preparation of active compound, 1 part by weight of active compound is mixed with the stated amount of solvent, and the concentrate is diluted with water to the desired concentration.
Vessels are filled with sand, a solution of the active ingredient, a suspension containing eggs and larvae of the southern root-knot nematode (Meloidogyne incognita) and salad seeds. The salad seeds germinate and the seedlings grow. Galls develop in the roots.
After 14 days the nematicidal activity is determined on the basis of the percentage of gall formation. 100% means that no galls were found; 0% means the number of galls found on the roots of the treated plants was equal to that in untreated control plants.

Boophilus microplus = Boophilus microplus - Injectiontest (BOOPMI Inj); type: in vivo; conditions: 20 μg/animal injected into adult engorged female ticks; after 7 days; 100% = all eggs infertile
Protocol: Boophilus microplus—Injectiontest (BOOPMI Inj)
as §1
To produce a suitable preparation of active compound, 10 mg of active compound are dissolved in 0.5 ml solvent, and the concentrate is diluted with solvent to the desired concentration.
Five adult engorged female ticks (Boophilus microplus) are injected with 1 μl compound solution into the abdomen. Ticks are transferred into replica plates and incubated in a climate chamber.
After 7 days the egg deposition of fertile eggs is monitored. Eggs where fertility is not visible are stored in a climate chamber till hatching after about 42 days. An efficacy of 100% means all eggs are infertile; 0% means all eggs are fertile.

[2] = method [a]: HPLC, pH 2.3, 0.1% phosphoric acid / acetonitrile
[3] = method [b]: LC-MS, pH 2.7, 0.1% formic acid in water / acetonitrile
[4] = method [c]: LC-MS, pH 7.8, 0.001 molar ammonium hydrogen carbonate / acetonitrile
[5] = method [b]: LC-MS at pH 2.7, 0.1% formic acid in water / acetonitrile
[6] = method [c]: LC-MS at pH 7.8, 0.001 molar ammonium hydrogen carbonate in water / acetonitrile

Row | Compound | activity (efficacy: larval mortality) (Cooperia curticei; 20 ppm) [%] | nematicidal activity (percentage of gall formation) (Meloidogyne incognita) [%] | log P [1, 5] | log P [1, 6] | other results
1 | C=CCOC(CNC(=O)c1sccc1C)c1ccc(Cl)cc1 (stereo not shown) [Compound 2] | 100 |  |  |  | activity (efficacy: larval mortality) (Haemonchus contortus; 20 ppm): 90%
2 | Cc1ccsc1C(=O)NCC(OCC1CC1)c1ccc(Cl)cc1 (stereo not shown) [Compound 6] |  |  |  |  | logP [1, 2]: 3.87^[a]; activity (efficacy: larval mortality) (Cooperia curticei; 100 ppm): 90%
3 | C=CCOC(CNC(=O)c1cccnc1Cl)c1ccc(Cl)cc1 (stereo not shown) [Compound 8] | 80 |  |  |  | 
4 | COC(c1ccc(Cl)cc1Cl)C(C)NC(=O)c1cn(C)nc1C(F)F (stereo not shown) [Compound 12] |  | 100 |  |  | activity (efficacy: larval mortality) (Haemonchus contortus; 100 ppm): 90%
5 | COC(c1ccc(Cl)cc1Cl)C(C)NC(=O)c1ccccc1Cl (stereo not shown) [Compound 30] |  | 100 |  |  | activity (efficacy: larval mortality) (Haemonchus contortus; 100 ppm): 100%
6 | COC(c1ccc(Cl)cc1Cl)C(C)NC(=O)c1ccccc1C(F)(F)F (stereo not shown) [Compound 35] |  | 90 |  |  | logP [1, 2]: 3.90^[a]; activity (efficacy: larval mortality) (Haemonchus contortus; 100 ppm): 100%
7 | COC(c1ccc(Cl)cc1Cl)C(C)NC(=O)c1cccnc1C(F)(F)F (stereo not shown) [Compound 39] |  | 90 |  |  | activity (efficacy: larval mortality) (Haemonchus contortus; 100 ppm): 100%
8 | COC(c1ccc(Cl)cc1)C(C)NC(=O)c1ccoc1I (stereo not shown) [Compound 64] | 80 |  |  |  | logP [1, 3]: 3.28^[b]; activity (efficacy: larval mortality) (Haemonchus contortus; 20 ppm): 100%
9 | COC(c1ccc(Cl)cc1)C(C)NC(=O)c1sccc1Br (stereo not shown) [Compound 65] |  |  |  |  | logP [1, 3]: 3.89^[b]; logP [1, 4]: 3.83^[c];; activity (efficacy: larval mortality) (Cooperia curticei; 100 ppm): 80%; activity (efficacy: larval mortality) (Haemonchus contortus; 100 ppm): 100%
10 | COC(CNC(=O)c1sccc1Cl)c1ccc(Cl)cc1 (stereo not shown) [Compound 69] |  |  |  |  | logP [1, 3]: 3.41^[b]; logP [1, 4]: 3.39^[c];; activity (efficacy: larval mortality) (Cooperia curticei; 100 ppm): 90%; activity (efficacy: larval mortality) (Haemonchus contortus; 100 ppm): 90%
11 | COC(c1ccc(Cl)cc1Cl)C(C)NC(=O)c1nccnc1C(F)(F)F (stereo not shown) [Compound 73] | 90 | 100 |  |  | activity (efficacy: larval mortality) (Haemonchus contortus; 20 ppm): 100%
12 | CCC(NC(=O)c1nccnc1C(F)(F)F)C(OC)c1ccc(Cl)cc1Cl (stereo not shown) [Compound 92] | 90 | 90 |  |  | logP [1, 3]: 3.99^[b]
13 | COC(c1ccc(Cl)cc1Cl)C1(NC(=O)c2nccnc2C(F)(F)F)CC1 (stereo not shown) [Compound 99] | 100 |  |  |  | logP [1, 3]: 3.61^[b]
14 | COC(CNC(=O)c1nccnc1C(F)(F)F)c1ccc(Cl)cc1Cl (stereo not shown) [Compound 103] | 90 | 90 |  |  | logP [1, 3]: 3.35^[b]; activity (efficacy: egg deposition of fertile eggs) (Boophilus microplus): 80%
15 | CCOC(c1ccc(Cl)cc1Cl)C(C)NC(=O)c1nccnc1C(F)(F)F (stereo not shown) [Compound 107] | 100 | 100 |  |  | logP [1, 3]: 4.16^[b]
16 | CCOC(c1ccc(Cl)cc1Cl)C(C)NC(=O)c1cccnc1C(F)(F)F (stereo not shown) [Compound 108] |  | 100 |  |  | logP [1, 3]: 3.92^[b]
17 | COC(c1ccc(Cl)cc1)C(C)NC(=O)c1ccccc1C(F)(F)F (stereo not shown) [Compound 128] | 80 |  | 3.45^[b] | 3.35^[c]; | activity (efficacy: larval mortality) (Haemonchus contortus; 20 ppm): 90%

Row | Compound | activity (efficacy: larval mortality) (Cooperia curticei; 20 ppm) [%] | nematicidal activity (percentage of gall formation) (Meloidogyne incognita) [%] | log P [1, 5] | log P [1, 6] | other results
18 | COC(c1ccc(Cl)cc1)C(C)NC(=O)c1ccccc1Cl (stereo not shown) [Compound 130] | 80 |  |  | 3.21^[c] | activity (efficacy: larval mortality) (Haemonchus contortus; 20 ppm): 80%
19 | COC(c1ccccc1Cl)C(C)NC(=O)c1ccccc1C(F)F (stereo not shown) [Compound 140] |  | 90 | 3.42^[b] | 3.39^[c]; | 
20 | COC(c1ccccc1Cl)C(C)NC(=O)c1c(F)cccc1C(F)(F)F (stereo not shown) [Compound 141] |  | 90 | 3.52^[b] | 3.50^[c]; | 
21 | COC(c1ccccc1Cl)C(C)NC(=O)c1ccccc1Br (stereo not shown) [Compound 142] |  | 90 | 3.34^[b] | 3.31^[c]; | 
22 | COC(c1ccccc1Cl)C(C)NC(=O)c1cccnc1Cl (stereo not shown) [Compound 143] |  | 90 | 2.55^[b] | 2.53^[c]; | 
23 | COC(c1ccccc1Cl)C(C)NC(=O)c1c(F)cccc1F (stereo not shown) [Compound 144] |  | 90 | 3.11^[b] | 3.08^[c]; | 
24 | COC(c1ccccc1Cl)C(C)NC(=O)c1ccccc1Cl (stereo not shown) [Compound 156] |  | 90 | 3.74^[b] | 3.26^[c]; | 
25 | COC(c1ccc(F)cc1)C(C)NC(=O)c1ccccc1Cl (stereo not shown) [Compound 191] |  | 90 | 3.02^[b] | 2.95^[c]; | 
26 | CCOC(c1ccc(Cl)cc1Cl)C(C)NC(=O)c1ccccc1C(F)(F)F (stereo not shown) [Compound 194] |  | 90 | 4.50[b] | 4.44^[c]; | 
27 | CCOC(c1ccc(Cl)cc1Cl)C(C)NC(=O)c1ccccc1[N+](=O)[O-] (stereo not shown) [Compound 202] | 100 | 90 | 3.83^[b] | 3.80^[c]; | activity (efficacy: larval mortality) (Haemonchus contortus; 20 ppm): 80%
28 | COC(c1ccccc1Cl)C(C)NC(=O)c1ccsc1I (stereo not shown) [Compound 203] | 80 |  | 3.53^[b] | 3.53^[c]; | activity (efficacy: larval mortality) (Haemonchus contortus; 20 ppm): 80%
29 | CCOC(c1ccc(Cl)cc1Cl)C(C)NC(=O)c1ccsc1I (stereo not shown) [Compound 205] | 100 |  | 4.63^[b] | 4.60^[c]; | activity (efficacy: larval mortality) (Haemonchus contortus; 20 ppm): 90%
30 | COC(c1ccccc1Cl)C(C)NC(=O)c1nccnc1C(F)(F)F (stereo not shown) [Compound 208] | 80 | 90 | 3.11^[b] | 3.10^[c]; | 
31 | COC(c1ccccc1Cl)C(C)NC(=O)c1cccnc1C(F)(F)F (stereo not shown) [Compound 209] | 90 |  | 3.27^[b] | 3.24^[c]; | 
32 | COC(c1ccc(Cl)cc1Cl)C1(NC(=O)c2nccnc2Cl)CC1 (stereo not shown) [Compound 210, 3-chloro-N-{1-[(2,4-dichlorophenyl)(methoxy)methyl]cyclopropyl}pyrazine-2-carboxamide] |  | 100 |  |  | chromatographic logP ([1]; acid HPLC method, reversed phase, read-out: Log P acid): 3.24; chromatographic logP ([1]; method [b]: LC-MS at pH 2.7, 0.1% formic acid in water / acetonitrile, read-out: log P): 3.24; chromatographic logP ([1]; method [c]: LC-MS at pH 7.8, 0.001 molar ammonium hydrogen carbonate in water / acetonitrile, read-out: log P): 3.19
33 | COC(c1ccccc1Cl)C(C)NC(=O)c1nccnc1Cl (stereo not shown) [Compound 213] |  | 100 | 2.76^[b] | 2.73^[c]; | 
